In patent US12295930B2, “Inducing proliferation of cardiomyocytes and therapeutic uses related thereto” (Emory University, priority 2018, dated 2025):

What was measured:
adult murine heart = assay: Transthoracic echocardiography after T3/β1-adrenergic receptor blocker therapy; assay type: in vivo, mouse; conditions: for Ejection fraction / FW diastole / FW systole / Fractional shortening / IVS diastole / IVS systole / LV end-diastolic dimension / LV end-systolic dimension / LV mass: adult 6-month-old mice, metoprolol 6 μg/g daily i.p. 19 days and/or T3 2 ng/g i.p. 5 daily injections, 2 weeks after cessation
Experimental: Approximately 6-month-old mice were used. […] On day-14 of this therapy, mice were additionally given 5 daily injections of T3 (2 ng/g, i.p.) or vehicle. At 2 and 4 weeks after the cessation of T3/β1-adrenergic receptor blocker mono- or combination therapy, the body weights of these mice were measured as well as their cardiac dimensions and function using transthoracic echocardiography.
Experiments were performed to determine whether reversal of cell cycle block using β1-blockade coupled with acute T3 treatment may be sufficient to expand the cardiomyocyte endowment of the adult murine heart. […] Two weeks after cessation of these therapies LV dimensions and contractility were analyzed by echocardiography as well as ventricular cardiomyocyte numbers.

[1] = tested on: ventricular cardiomyocytes; assay: Ventricular cardiomyocyte numbers after T3/metoprolol therapy in adult mice; assay type: in vivo, mouse; conditions: adult 6-month-old mice; metoprolol 6 μg/g daily i.p. 19 days and/or T3 2 ng/g i.p. 5 daily injections; 2 weeks after cessation
Source text: Digestion efficiencies were ˜98%. Cardiomyocytes in these cell suspensions, identified by their size and by rod shape, were counted using a hemocytometer. […]

cyclins D1, A2 and B1 = assay: Acute in vivo T3 challenge: cyclin expression by immunoblotting; design: species or system mouse
Experimental: (§1) T3 was administered, intraperitoneally, to each mouse at the dose indicated. Vehicle was administered by the same route and animals thus treated served as controls. Phosphate buffered saline (PBS) was the vehicle for T3, and soybean oil (Sigma, S7381) was the vehicle for 4-hydroxytamoxifen. […] P7 and older mice were first anesthetized with 5% isoflurane and then hearts were harvested for further processing. Hearts were also collected at 12, 24 and 40 h after T3 or vehicle treatment and ventricular cardiomyocytes were prepared from the apex and base for immunoblotting, RT-qPCR or immunocytochemistry. Hearts were also collected at various ages after birth for immunoblotting, immunocytochemistry, immunohistochemistry and cardiomyocyte number estimation.
An acute in vivo T3 challenge was used to identify post-neonatal LV cardiomyocytes that retain proliferative capacity. Increases in myocardial cell cycle-promoting cyclins was explored as a surrogate for identifying cardiomyocytes that are able to enter the cell cycle.

LV cardiomyocytes [2] = assay: Immunocytochemistry for S phase (EdU) and mitosis (pH3) after in vivo T3; design: species or system mouse
Experimental: as §1, with “4-hydroxytamoxifen. DUSP5 or β1-adrenergic receptor-specific siRNA or scrambled siRNA (control) was administered using in vivo-jetPEI®, (VWR, 89129-960).” for “4-hydroxytamoxifen.”
Experiments were performed to determine whether T3-stimulated cell cycle entry in LV apical cardiomyocytes ends in mitosis and cell replication.

[3] = tested on: ventricular cardiomyocytes; assay: Ventricular cardiomyocyte count in early post-neonatal mice after T3; assay type: in vivo, mouse
Experimental: To determine the effect of T3 on the ventricular cardiomyocyte population in early post-neonatal mice, T3 daily (i. p.), was administered from P7 to P9. At P12, hearts were enzymatically disaggregated and cell suspensions created from the cardiac ventricles. Digestion efficiencies were ˜98%. Cardiomyocytes in these cell suspensions, identified by their size and by rod shape, were counted using a hemocytometer. T3 increased ventricular cardiomyocyte numbers by ˜18% (FIG. 2D), which indicates an average replication rate of 3.6%/day between P7 and P12.

[4] = tested on: IGF-1/IGF-1R, MEK1/2, ERK1/2; assay: T3 proliferative signaling in P8 LV apical and basal cardiomyocytes (immunoblotting); assay type: in vivo, mouse
Experimental: as §1, with “4-hydroxytamoxifen. DUSP5 or β1-adrenergic receptor-specific siRNA or scrambled siRNA (control) was administered using in vivo-jetPEI®, (VWR, 89129-960).” for “4-hydroxytamoxifen.”
Proliferative signaling by growth factors involves Ras/Raf/mitogen-activated protein kinase (MAPK) kinase (MEK)/extracellular signal-regulated kinase (ERK) signaling. MEK1/2 activate ERK1/2 by phosphorylating T202 and Y204, which is required for ERK1/2 translocation to the nucleus. Sustained ERK1/2 phosphorylation in the nucleus activates multiple transcription factors ultimately resulting in effector protein synthesis and cell proliferation. A single dose of T3 was administered to P8 mice, and cardiomyocytes were isolated from the LV apex or base either immediately after T3 administration (0 h) or after 24 h. […] However, the fraction of nuclear ERK1/2 that remained phosphorylated at 24 h post-T3 treatment was ˜70% lower in LV basal cardiomyocytes (FIG. 4A).

LV cardiomyocytes [5] = conditions: T3 daily over 3 days (P7-P9); same mouse heart
Source text: To determine if LV apical cardiomyocytes undergo cell replication, multicolor clonal analysis was used in double-transgenic Myh6-MerCreMer::Rosa26fs-Confetti mice to record the proliferative strategies of individual cardiomyocytes of the apex relative to those of the base.

[6] = LV apex cardiomyocytes, post-P8, in vivo T3
[7] = LV basal cardiomyocytes, in vivo T3

Structure (SMILES) | Ejection fraction (adult murine heart) | FW diastole (adult murine heart) | FW systole (adult murine heart) | Fractional shortening (adult murine heart) | IVS diastole (adult murine heart) | IVS systole (adult murine heart) | LV end-diastolic dimension (adult murine heart) | LV end-systolic dimension (adult murine heart) | LV mass (adult murine heart) | Cardiomyocyte numbers, (millions) [n] [1] | also measured
N[C@@H](Cc1cc(I)c(Oc2ccc(O)c(I)c2)c(I)c1)C(=O)O [T3, 3,3′,5-triiodo-L-thyronine] | 55.7 ± 1.4^NS % | 0.87 ± 0.01^NS mm | 1.19 ± 0.03^NS mm | 24.8 ± 1.4^NS % | 0.94 ± 0.01^NS mm | 1.29 ± 0.02^NS mm | 3.60 ± 0.03^NS mm | 2.70 ± 0.05^NS mm | 110 ± 2^NS mg | 2.33 ± 0.039^NS millions | effect on body weight, ventricular cardiomyocyte numbers, LV mass or any measured LV dimension (adult murine heart; vehicle pretreated adult mice): did not significantly affect; T3 increase of cyclins D1/A2/B1, more in apical than in basal cardiomyocytes (cyclins D1, A2 and B1; P8 hearts, LV apical vs basal cardiomyocytes): 2-5 fold; expression of cyclins D1, A2 and B1, higher in the LV apex than in the base (cyclins D1, A2 and B1; P8 mice, 40 h after in vivo T3 challenge, LV myocardium): 2.5-100 fold; T3 effect on cyclins in apical or basal cardiomyocytes (cyclins D1, A2 and B1; P16 cardiomyocytes): did not increase cyclins; T3 effect on cyclins D1/A2/B1 in LV apical and basal cardiomyocytes (cyclins D1, A2 and B1; neonatal hearts): increased cyclins D1/A2/B1 similarly in LV apical and basal cardiomyocytes; T3-stimulated expression of cyclins D1, A2 and B1, lower in basal cardiomyocytes (cyclins D1, A2 and B1; post-neonatal basal vs apical cardiomyocytes, 40 h after T3): 2-3 fold; number of cardiomyocytes in S phase (EdU+) (LV cardiomyocytes [2]; [6]): increased the number of cardiomyocytes in S phase; number of cardiomyocytes in mitosis (pH3+) (LV cardiomyocytes [2]; [6]): increased; S phase in LV basal cardiomyocytes (LV cardiomyocytes [2]; [7]): an increase in S phase was observed; mitosis in LV basal cardiomyocytes (LV cardiomyocytes [2]; [7]): did not enter mitosis; increase in ventricular cardiomyocyte numbers ([3]; T3 daily i.p. P7 to P9, counted at P12): ~18%; average replication rate ([3]; between P7 and P12): 3.6 %/day; fraction of nuclear ERK1/2 that remained phosphorylated, lower in LV basal cardiomyocytes ([4]; 24 h post-T3 treatment, P8 mice, basal vs apical): ~70%; MEK1/2 phosphorylation and nuclear translocation of ERK1/2 ([4]; P8 mice, single dose T3, 24 h, similarly in apical and basal cardiomyocytes): increased MEK1/2 phosphorylation; T3-stimulated expression of IGF-1/IGF-1R ([4]; post-neonatal basal vs apical cardiomyocytes): comparable in basal and apical cardiomyocytes; increase in frequency of monochromatic cardiomyocyte clusters in the LV apex relative to the base (LV cardiomyocytes [5]): ~6.5 fold
COCCc1ccc(OCC(O)CNC(C)C)cc1 (stereo not drawn) [Metoprolol, metoprolol succinate] | 55.4 ± 1.8% | 0.92 ± 0.02 mm | 1.20 ± 0.03 mm | 23.4 ± 0.6% | 0.96 ± 0.02 mm | 1.29 ± 0.02 mm | 3.53 ± 0.07 mm | 2.71 ± 0.06 mm | 113 ± 2 mg | 2.44 ± 0.026 millions | 
